Among the data in ChEMBL document CHEMBL5154783, “Design, synthesis, and evaluation of novel 3-thiophene derivatives as potent fungistatic and fungicidal reagents based on a conformational restriction strategy” (Eur J Med Chem, 2022) are MIC values, retold here.

Values after ≈ are worked out from the molar mass of the structure shown.

Assay type in all cases: functional
Experiment [1] deals with Candida albicans. In words: Antifungal activity against Candida albicans ATCC SC5314 assessed as fungal growth inhibition by CLSI based serial microbroth dilution method.
Experiment [2] relates to Candida albicans. In words: Antifungal activity against Candida albicans CPCC400616 assessed as fungal growth inhibition by CLSI based serial microbroth dilution method.
Another experiment deals with Candida tropicalis. The experiment is described as follows: Antifungal activity against Candida tropicalis CGMCC 2.3739 assessed as fungal growth inhibition by CLSI based serial microbroth dilution method.
Another experiment concerns Cryptococcus neoformans. The experiment is described as follows: Antifungal activity against Cryptococcus neoformans CGMCC 2.3161 assessed as fungal growth inhibition by CLSI based serial microbroth dilution method.
A further experiment deals with Candida parapsilosis. The experiment is described as follows: Antifungal activity against Candida parapsilosis GIM 2.190 assessed as fungal growth inhibition by CLSI based serial microbroth dilution method. The following applies: Lodderomyces parapsilosis.
A further experiment deals with Nakaseomyces glabratus. In words: Antifungal activity against Candida glabrata clinical isolate assessed as fungal growth inhibition by CLSI based serial microbroth dilution method.
The subject of the next experiment is Pichia kudriavzevii. In words: Antifungal activity against Candida krusei GIM 2.1 assessed as fungal growth inhibition by CLSI based serial microbroth dilution method.
A further experiment has as its system Aspergillus fumigatus. In words: Antifungal activity against Aspergillus fumigatus CGMCC 3.7795 assessed as fungal growth inhibition by CLSI based serial microbroth dilution method.

As for `c1ccc(CC2(Cn3ccnc3)COC(c3ccc(-c4cncnc4)cc3)=N2)cc1` (configuration not stated), the MIC in the experiment with Candida albicans [1], in the experiment with Candida albicans [2], with Candida tropicalis, with Cryptococcus neoformans, in the experiment with Candida parapsilosis and in the experiment on Nakaseomyces glabratus was over 64 µg/mL throughout. Further, the MIC in the experiment on Pichia kudriavzevii and in the experiment with Aspergillus fumigatus was over 64 µg/mL in each case.
Turning to `FC(F)(F)c1ccccc1CC1(Cn2ccnc2)COC(c2ccc(-c3ccsc3)cc2)=N1` (configuration not stated), the MIC was 0.125 µg/mL (≈ 0.267 µM) with Candida albicans [1]; 8 µg/mL (≈ 17.1 µM) in the experiment on Candida albicans [2]; 16 µg/mL (≈ 34.2 µM) in the experiment with Candida tropicalis; over 64 µg/mL with Cryptococcus neoformans; over 64 µg/mL with Candida parapsilosis; 16 µg/mL (≈ 34.2 µM) in the experiment with Nakaseomyces glabratus. Besides, the minimum inhibitory concentration (MIC) is over 64 µg/mL with Pichia kudriavzevii and 32 µg/mL (≈ 68.4 µM) in the experiment with Aspergillus fumigatus.
Regarding `FC(F)(F)c1ccc(CC2(Cn3ccnc3)COC(c3ccc(-c4ccsc4)cc3)=N2)cc1` (configuration not stated), the MIC in the experiment with Candida albicans [1], in the experiment on Candida albicans [2], in the experiment with Candida tropicalis, in the experiment on Cryptococcus neoformans, in the experiment with Candida parapsilosis and with Nakaseomyces glabratus was over 64 µg/mL each time. Also, the MIC in the experiment with Pichia kudriavzevii and in the experiment with Aspergillus fumigatus was over 64 µg/mL in each case.
On to `Brc1ccc(C2=NC(Cc3ccccc3)(Cn3ccnc3)CO2)cc1` (configuration not stated), for which the minimum inhibitory concentration (MIC) in the experiment on Candida albicans [1] is over 64 µg/mL; with Candida albicans [2], over 64 µg/mL; in the experiment with Candida tropicalis, over 64 µg/mL; in the experiment on Cryptococcus neoformans, 4 µg/mL (≈ 10.1 µM); with Candida parapsilosis it was over 64 µg/mL; in the experiment with Nakaseomyces glabratus it was over 64 µg/mL. In addition, the minimal inhibitory concentration (MIC) in the experiment on Pichia kudriavzevii and with Aspergillus fumigatus was over 64 µg/mL throughout.
